# Assay results as given in patent US20110039763A1, “TARGETED ANTIMICROBIAL MOIETIES” (C3 JIAN, INC., priority 2009, published 2011).
# Entries after “also recorded” stand apart in the source; their conditions may differ.
# Tested on: microorganisms
# Experiment: Targeting peptide binding to target microorganisms (Tables 3, 10, 12)
# Settings: microorganism(s) the targeting peptide binds; binding in aqueous buffers varied with peptide solubility, preferably 1x PBS
row,Substance,Target(s)
1,PF-238 (RNAVVVTEATFPKYEEEITNYLNRRFGEDWSLKLEKCSVA; Peptide with targeting and/or antimicrobial activity),S. mutans and S. epidermidis and E. coli and P. aeruginosa and C. albicans and MRSA and S. pneumoniae and E. faecalis
2,PF-239 (PKHNVVTGVSVDLDYKP; Peptide with targeting and/or antimicrobial activity),S. mutans; also recorded: E. coli
3,PF-240 (RITEVPPDEHSDR; Peptide with targeting and/or antimicrobial activity),S. mutans; also recorded: E. coli
4,PF-242 (KLFEDPLIKSKAVENFQTTWHEQCLAKELAKNM; Peptide with targeting and/or antimicrobial activity),S. mutans; also recorded: E. coli
5,PF-244 (HMRTISYLLAFAKFSLFIPPKQSLKRL; Peptide with targeting and/or antimicrobial activity),S. epidermidis; also recorded: M. luteus; also recorded: P. aeruginosa; also recorded: A. baumannii
6,PF-245 (MNDVKPVVQPKQTLKAFLVQLLSVRAGVYIKQNNQLPKTKG; Peptide with targeting and/or antimicrobial activity),S. epidermidis; also recorded: M. luteus; also recorded: P. aeruginosa; also recorded: A. baumannii
7,PF-246 (QPDEKAEFFDPSLDKVYRHPTFYHIPDGIEHM; Peptide with targeting and/or antimicrobial activity),S. mutans
8,PF-247 (ETAASETH; Peptide with targeting and/or antimicrobial activity),S. epidermidis
9,PF-248 (ILSKLWFWMINSLGVVLLVSYWLLAKWGVA; Peptide with targeting and/or antimicrobial activity),S. mutans; also recorded: S. epidermidis; also recorded: M. luteus; also recorded: E. coli; also recorded: P. aeruginosa; also recorded: A. baumannii
10,PF-253 (VRDDDS; Peptide with targeting and/or antimicrobial activity),S. epidermidis; also recorded: M. luteus
11,PF-254 (FIYGVGFVPHFWLWKWLFSPWIAWPLMLLGYYIWFLT; Peptide with targeting and/or antimicrobial activity),S. epidermidis; also recorded: M. luteus; also recorded: P. aeruginosa; also recorded: A. baumannii
12,PF-256 (EYFKQVYVKNEKIYSFWICKDLSPKEAAKRAEDILVKLK; Peptide with targeting and/or antimicrobial activity),S. epidermidis
13,PF-259 (LPFSKIGRRVSYKKKDVLKYEQSKTVLNTAQLATV; Peptide with targeting and/or antimicrobial activity),S. epidermidis; also recorded: P. aeruginosa; also recorded: A. baumannii
14,PF-262 (DPHSEIDVTRYCQLHHFTCQTMQISEREFHYLIETQ; Peptide with targeting and/or antimicrobial activity),S. mutans; also recorded: S. epidermidis; also recorded: M. luteus; also recorded: E. coli; also recorded: P. aeruginosa; also recorded: A. baumannii
15,PF-263 (NLKKCPC; Peptide with targeting and/or antimicrobial activity),S. epidermidis; also recorded: M. luteus; also recorded: A. baumannii
16,PF-265 (MKTLFFPLFLIIFVLIIQALDQSYQKKIGISKPQKHPEFMQ; Peptide with targeting and/or antimicrobial activity),S. epidermidis; also recorded: M. luteus; also recorded: A. baumannii
17,PF-266 (DQEKKNKTEESTEQ; Peptide with targeting and/or antimicrobial activity),S. mutans
18,PF-267 (SDDKRTD; Peptide with targeting and/or antimicrobial activity),M. luteus
19,PF-268 (EVLLSDLRPDIFSET; Peptide with targeting and/or antimicrobial activity),S. mutans
20,PF-275 (LVSGVANTVKNTAHTVGNTAKHAGHVAADTTVKATKKQQVK; Peptide with targeting and/or antimicrobial activity),S. mutans
21,PF-279 (SHIGFISISACLAVLLGIARLFVWTWVKFFA; Peptide with targeting and/or antimicrobial activity),S. mutans; also recorded: S. epidermidis; also recorded: M. luteus; also recorded: E. coli; also recorded: P. aeruginosa; also recorded: A. baumannii
22,PF-281 (SYNTYYNKLIHGQRTPDGM; Peptide with targeting and/or antimicrobial activity),S. mutans; also recorded: E. coli
23,PF-282 (QNNDTSAWCGSAHKNGNS; Peptide with targeting and/or antimicrobial activity),S. mutans
24,PF-284 (MRYITYSLIPRLLSKKVIHQQ; Peptide with targeting and/or antimicrobial activity),C. difficile
25,PF-285 (VPAKLLRVIDEIPE; Peptide with targeting and/or antimicrobial activity),S. mutans
26,PF-288 (IYQLLNIEYSEDD; Peptide with targeting and/or antimicrobial activity),S. mutans; also recorded: E. coli
27,PF-291 (DVDGAIESEL; Peptide with targeting and/or antimicrobial activity),S. mutans; also recorded: E. coli

row,Substance,Target(s)
1,PF-295 (NIQVYESECGNYIFKKSDESFLIDIFDKNGTH; Peptide with targeting and/or antimicrobial activity),C. difficile
2,PF-299 (LATKLKYEKEHKKM; Peptide with targeting and/or antimicrobial activity),B. subtilis
3,PF-300 (VKDVLLELFNKIIGA; Peptide with targeting and/or antimicrobial activity),B. subtilis; also recorded: C. difficile
4,PF-304 (LVKDTSDIKNDLNNIEIVTSKNSNDIAKLKSVK; Peptide with targeting and/or antimicrobial activity),S. mutans
5,PF-308 (QQYLILDRM; Peptide with targeting and/or antimicrobial activity),C. difficile
6,PF-309 (GIPGMTAAPAEENEQEENADEE; Peptide with targeting and/or antimicrobial activity),S. mutans; also recorded: E. coli
7,PF-311 (IDAVTKKKTTCMIRAPTKIPIAHTDN; Peptide with targeting and/or antimicrobial activity),C. difficile
8,PF-314 (ECLKKAIKSKALNKAFKIDVPDEVYDNLLMELEEYEK; Peptide with targeting and/or antimicrobial activity),S. mutans
9,PF-317 (LILVSDI; Peptide with targeting and/or antimicrobial activity),S. mutans
10,PF-320 (DSGYYALLENKEERVVWDGEVVANNIFNNLWIVVNKVKTG; Peptide with targeting and/or antimicrobial activity),S. mutans; also recorded: E. coli
11,PF-323 (ARESIEKSHVPVDATIVGVVDSFEVFDE; Peptide with targeting and/or antimicrobial activity),S. mutans
12,PF-324 (HFSLL; Peptide with targeting and/or antimicrobial activity),C. difficile
13,PF-325 (LTIDEKLRNHR; Peptide with targeting and/or antimicrobial activity),S. mutans; also recorded: E. coli
14,PF-326 (VIVGNLGAQKEKRNDTPISAKKDIMGDKTVRVRADLHH; Peptide with targeting and/or antimicrobial activity),S. mutans; also recorded: E. coli
15,PF-328 (NGNEKAFSEVENLVK; Peptide with targeting and/or antimicrobial activity),S. mutans
16,PF-329 (IGILFDKSVRKY; Peptide with targeting and/or antimicrobial activity),S. epidermidis
17,PF-333 (YMTKKLVEMAEQQMAGKSNR; Peptide with targeting and/or antimicrobial activity),S. mutans
18,PF-334 (QQYLILDRM; Peptide with targeting and/or antimicrobial activity),S. epidermidis; also recorded: C. difficile
19,PF-337 (YMTKKLVEMAERQMAGK; Peptide with targeting and/or antimicrobial activity),S. epidermidis
20,PF-338 (KGTSCPDQLSKAIRQSI; Peptide with targeting and/or antimicrobial activity),S. mutans
21,PF-340 (VKDVLLELFNKIIGA; Peptide with targeting and/or antimicrobial activity),S. mutans; also recorded: E. coli
22,PF-348 (ESASAAEWYNPNMNVKKAICMG; Peptide with targeting and/or antimicrobial activity),B. subtilis; also recorded: E. coli; also recorded: P. aeruginosa; also recorded: C. albicans; also recorded: E. faecalis; also recorded: C. jejuni
23,PF-351 (YLFFKGKKVAEEEATKDEVKR; Peptide with targeting and/or antimicrobial activity),S. mutans
24,PF-352 (RVKKIG; Peptide with targeting and/or antimicrobial activity),C. jeikeium
25,PF-359 (MTVMEDPGSEQRNKIQSPMKGEDFSALFGR; Peptide with targeting and/or antimicrobial activity),S. epidermidis and B. fragilis and P. aeruginosa and C. albicans and MRSA and E. faecalis and C. jeikeium
26,PF-361 (NQVTEGIRLLVE; Peptide with targeting and/or antimicrobial activity),S. epidermidis; also recorded: E. coli; also recorded: E. faecalis; also recorded: C. jejuni
27,PF-364 (LVNGIKI; Peptide with targeting and/or antimicrobial activity),S. epidermidis; also recorded: B. fragilis; also recorded: P. aeruginosa; also recorded: C. jeikeium; also recorded: C. jejuni
